Each compound was assayed against T1, human PAH with the R408W mutation (Homo sapiens, UniProt P00439, R408W) (assay: Cell Based Phenylalanine Flux Assay). Settings: A375 cells expressing human R408W PAH; 24 hrs compound incubation; 13C-Tyrosine by LC-MS; average where tested multiple times; read-out: AC50.
T1 construct: expressed in transfected cells
T1 sequence (P00439 1-452 R408W): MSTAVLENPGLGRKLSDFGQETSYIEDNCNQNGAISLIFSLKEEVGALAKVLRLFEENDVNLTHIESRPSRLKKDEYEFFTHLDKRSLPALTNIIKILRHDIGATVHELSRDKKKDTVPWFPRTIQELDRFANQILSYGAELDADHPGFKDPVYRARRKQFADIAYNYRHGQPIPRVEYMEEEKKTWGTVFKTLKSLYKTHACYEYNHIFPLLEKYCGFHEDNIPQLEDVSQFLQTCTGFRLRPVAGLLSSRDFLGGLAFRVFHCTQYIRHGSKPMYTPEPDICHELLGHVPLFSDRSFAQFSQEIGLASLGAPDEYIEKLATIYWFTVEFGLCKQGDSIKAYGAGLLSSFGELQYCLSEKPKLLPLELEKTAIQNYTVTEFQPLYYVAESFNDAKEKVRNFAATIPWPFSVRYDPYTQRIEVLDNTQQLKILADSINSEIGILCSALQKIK
`Cc1ncccc1-c1nnc(C(=O)N2CCc3[nH]cnc3[C@@H]2c2cc3c(F)cccn3n2)o1` [Example 1329, (R)-(4-(4-fluoropyrazolo [1,5-a]pyridin-2-yl)-6,7-dihydro-1H-imidazo[4,5-c]pyridin-5(4H)-yl)(5-(2-methylpyridin-3-yl)-1,3,4-oxadiazol-2-yl)methanone] was tested, and the AC50 was > 5000 nM.
`O=C(c1nnc(-c2cnccn2)o1)N1CCc2[nH]cnc2[C@H]1c1cc2c(Cl)cccn2n1` [Example 1332, (S)-(4-(4-chloropyrazolo [1,5-a]pyridin-2-yl)-6,7-dihydro-1H-imidazo[4,5-c]pyridin-5(4H)-yl)(5-(pyrazin-2-yl)-1,3,4-oxadiazol-2-yl)methanone] was tested, and the AC50 was < 500 nM.
With `O=C(c1nnc(-c2cnccn2)o1)N1CCc2[nH]cnc2[C@@H]1c1cc2c(Cl)cccn2n1` [Example 1333, (R)-(4-(4-chloropyrazolo [1,5-a]pyridin-2-yl)-6,7-dihydro-1H-imidazo[4,5-c]pyridin-5(4H)-yl)(5-(pyrazin-2-yl)-1,3,4-oxadiazol-2-yl)methanone] the AC50 was 1000 to 5000 nM.
Compound `O=C(c1nnc(-c2cccnc2)o1)N1CCc2[nH]cnc2[C@H]1c1cc2cccc(C(F)(F)F)n2n1` [Example 1340, (S)-(5-(pyridin-3-yl)-1,3,4-oxadiazol-2-yl)(4-(7-(trifluoromethyl)pyrazolo [1,5-a]pyridin-2-yl)-6,7-dihydro-1H-imidazo[4,5-c]pyridin-5(4H)-yl)methanone] has an AC50 of 500 to 1000 nM.
Compound `O=C(c1nnc(-c2cccnc2)o1)N1CCc2[nH]cnc2[C@@H]1c1cc2cccc(C(F)(F)F)n2n1` [Example 1341, (R)-(5-(pyridin-3-yl)-1,3,4-oxadiazol-2-yl)(4-(7-(trifluoromethyl)pyrazolo [1,5-a]pyridin-2-yl)-6,7-dihydro-1H-imidazo[4,5-c]pyridin-5(4H)-yl)methanone] has an AC50 of 1000 to 5000 nM.
`O=C(c1nnc(-c2cccnc2)o1)N1CCc2[nH]cnc2[C@H]1c1cc2ccccn2n1` [Example 1346, (S)-(4-(pyrazolo[1,5-a]pyridin-2-yl)-6,7-dihydro-1H-imidazo[4,5-c]pyridin-5(4H)-yl)(5-(pyridin-3-yl)-1,3,4-oxadiazol-2-yl)methanone] gave an AC50 of 500 to 1000 nM.
In the case of `Cc1c(-c2nnc(C(=O)N3CCc4[nH]cnc4[C@@H]3c3cc4c(C(F)F)cccn4n3)o2)cnn1C` [Example 1349], the AC50 is reported as > 5000 nM.
For `CC(C)(F)c1nnc(C(=O)N2CCc3[nH]cnc3[C@H]2c2cc3c(C(F)F)cccn3n2)o1` [Example 1350, (S)-(4-(4-(difluoromethyl)pyrazolo[1,5-a]pyridin-2-yl)-6,7-dihydro-1H-imidazo [4,5-c]pyridin-5(4H)-yl)(5-(2-fluoropropan-2-yl)-1,3,4-oxadiazol-2-yl)methanone], the AC50 was < 500 nM.
For `Cn1ccc(-c2nnc(C(=O)N3CCc4[nH]cnc4[C@@H]3c3cc4c(C(F)F)cccn4n3)o2)n1` [Example 1353, (R)-(4-(4-(difluoromethyl)pyrazolo[1,5-a]pyridin-2-yl)-6,7-dihydro-1H-imidazo [4,5-c]pyridin-5(4H)-yl)(5-(1-methyl-1H-pyrazol-3-yl)-1,3,4-oxadiazol-2-yl)methanone], the AC50 was > 5000 nM.
For `Cc1ncccc1-c1nnc(C(=O)N2CCc3[nH]cnc3[C@H]2c2cc3c(Cl)cccn3n2)o1` [Example 1356, (S)-(4-(4-chloropyrazolo [1,5-a]pyridin-2-yl)-6,7-dihydro-1H-imidazo[4,5-c]pyridin-5(4H)-yl)(5-(2-methylpyridin-3-yl)-1,3,4-oxadiazol-2-yl)methanone], the AC50 was < 500 nM.
With `Cc1ncccc1-c1nnc(C(=O)N2CCc3[nH]cnc3[C@@H]2c2cc3c(Cl)cccn3n2)o1` [Example 1357, (R)-(4-(4-chloropyrazolo [1,5-a]pyridin-2-yl)-6,7-dihydro-1H-imidazo[4,5-c]pyridin-5(4H)-yl)(5-(2-methylpyridin-3-yl)-1,3,4-oxadiazol-2-yl)methanone] the AC50 was > 5000 nM.
With `O=C(c1nnc(-c2cnccn2)o1)N1CCc2[nH]cnc2[C@H]1c1cc2cccc(C(F)(F)F)n2n1` [Example 1361, (S)-(5-(pyrazin-2-yl)-1,3,4-oxadiazol-2-yl)(4-(7-(trifluoromethyl)pyrazolo [1,5-a]pyridin-2-yl)-6,7-dihydro-1H-imidazo[4,5-c]pyridin-5(4H)-yl)methanone] the AC50 was 500 to 1000 nM.
`O=C(c1nnc(-c2cnccn2)o1)N1CCc2[nH]cnc2[C@H]1c1cc2ccccn2n1` [Example 1362, (S)-(5-(pyrazin-2-yl)-1,3,4-oxadiazol-2-yl)(4-(pyrazolo[1,5-a]pyridin-2-yl)-6,7-dihydro-1H-imidazo[4,5-c]pyridin-5(4H)-yl)methanone] showed an AC50 of 500 to 1000 nM.
With `Cc1ncccc1-c1nnc(C(=O)N2CCc3[nH]cnc3[C@H]2c2cc3ccccn3n2)o1` [Example 1364] the AC50 was < 500 nM.
With `Cc1ncccc1-c1nnc(C(=O)N2CCc3[nH]cnc3[C@@H]2c2cc3ccccn3n2)o1` [Example 1365, (R)-(5-(2-methylpyridin-3-yl)-1,3,4-oxadiazol-2-yl)(4-(pyrazolo[1,5-a]pyridin-2-yl)-6,7-dihydro-1H-imidazo[4,5-c]pyridin-5(4H)-yl)methanone] the AC50 was > 5000 nM.
Compound `Cc1c(-c2nnc(C(=O)N3CCc4[nH]cnc4[C@@H]3c3cc4cccc(C(F)F)n4n3)o2)cnn1C` [Example 1367, (R)-(4-(7-(difluoromethyl)pyrazolo[1,5-a]pyridin-2-yl)-6,7-dihydro-1H-imidazo[4,5-c]pyridin-5(4H)-yl)(5-(1,5-dimethyl-1H-pyrazol-4-yl)-1,3,4-oxadiazol-2-yl)methanone] has an AC50 of 1000 to 5000 nM.
With `Cn1nc(C(F)F)cc1C(=O)N1CCc2[nH]cnc2[C@H]1c1cc2c(Cl)cccn2n1` [Example 1368, (S)-(4-(4-chloropyrazolo [1,5-a]pyridin-2-yl)-6,7-dihydro-1H-imidazo[4,5-c]pyridin-5(4H)-yl)(3-(difluoromethyl)-1-methyl-1H-pyrazol-5-yl)methanone] the AC50 was < 500 nM.
With `Cn1nc(C(F)F)cc1C(=O)N1CCc2[nH]cnc2[C@H]1c1cc2c(C(F)F)cccn2n1` [Example 1372, (S)-(3-(difluoromethyl)-1-methyl-1H-pyrazol-5-yl)(4-(4-(difluoromethyl)pyrazolo [1,5-a]pyridin-2-yl)-6,7-dihydro-1H-imidazo[4,5-c]pyridin-5(4H)-yl)methanone] the AC50 was < 500 nM.
Work on `Cn1nc(C(F)F)cc1C(=O)N1CCc2[nH]cnc2[C@@H]1c1cc2c(C(F)F)cccn2n1` [Example 1373, (R)-(3-(difluoromethyl)-1-methyl-1H-pyrazol-5-yl)(4-(4-(difluoromethyl)pyrazolo [1,5-a]pyridin-2-yl)-6,7-dihydro-1H-imidazo[4,5-c]pyridin-5(4H)-yl)methanone] yielded an AC50 of 1000 to 5000 nM.
With `O=C(c1nnc(-c2ccn(C(F)F)n2)o1)N1CCc2[nH]cnc2[C@@H]1c1cc2c(C(F)F)cccn2n1` [Example 1376, (R)-(5-(1-(difluoromethyl)-1H-pyrazol-3-yl)-1,3,4-oxadiazol-2-yl)(4-(4-(difluoromethyl)pyrazolo[1,5-a]pyridin-2-yl)-6,7-dihydro-1H-imidazo[4,5-c]pyridin-5(4H)-yl)methanone] the AC50 was > 5000 nM.
`Cc1cccc(-c2nnc(C(=O)N3CCc4[nH]cnc4[C@H]3c3cc4ccccn4n3)o2)n1` [Example 1382, (S)-(5-(6-methylpyridin-2-yl)-1,3,4-oxadiazol-2-yl)(4-(pyrazolo[1,5-a]pyridin-2-yl)-6,7-dihydro-1H-imidazo[4,5-c]pyridin-5(4H)-yl)methanone] was tested, and the AC50 was < 500 nM.
For `Cn1nc(C(F)F)cc1C(=O)N1CCc2[nH]cnc2[C@H]1c1cc2cccc(C(F)(F)F)n2n1` [Example 1386, (S)-(3-(difluoromethyl)-1-methyl-1H-pyrazol-5-yl)(4-(7-(trifluoromethyl)pyrazolo [1,5-a]pyridin-2-yl)-6,7-dihydro-1H-imidazo[4,5-c]pyridin-5(4H)-yl)methanone], the AC50 was 500 to 1000 nM.

Same assay, conditions: A375 cells expressing human R408W PAH; 24 hrs with compound, then sepiapterin and 13C9,15N-Phenylalanine for 4 hours; 13C-Tyrosine by LC-MS; average where tested multiple times; read-out: AC50
With `Cc1cccc(-c2nnc(C(=O)N3CCc4[nH]cnc4[C@H]3c3cc4cccc(C)n4n3)o2)n1` [Example 1398, (S)-(4-(7-methylpyrazolo [1,5-a]pyridin-2-yl)-6,7-dihydro-1H-imidazo[4,5-c]pyridin-5(4H)-yl)(5-(6-methylpyridin-2-yl)-1,3,4-oxadiazol-2-yl)methanone] the AC50 was < 500 nM.
In the case of `Cn1cc(-c2nnc(C(=O)N3CCc4[nH]cnc4[C@H]3c3cc4cccc(C(F)F)n4n3)o2)cn1` [Example 1406, (S)-(4-(7-(difluoromethyl)pyrazolo[1,5-a]pyridin-2-yl)-6,7-dihydro-1H-imidazo [4,5-c]pyridin-5(4H)-yl)(5-(1-methyl-1H-pyrazol-4-yl)-1,3,4-oxadiazol-2-yl)methanone], the AC50 is reported as < 500 nM.
In the case of `O=C(c1nnc(-c2cnccn2)o1)N1CCc2[nH]cnc2[C@H]1c1cc2c(C(F)F)cccn2n1` [Example 1414, (S)-(4-(4-(difluoromethyl)pyrazolo[1,5-a]pyridin-2-yl)-6,7-dihydro-1H-imidazo [4,5-c]pyridin-5(4H)-yl)(5-(pyrazin-2-yl)-1,3,4-oxadiazol-2-yl)methanone], the AC50 is reported as < 500 nM.
`O=C(c1nnc(-c2cnccn2)o1)N1CCc2[nH]cnc2[C@@H]1c1cc2c(C(F)F)cccn2n1` [Example 1415, (R)-(4-(4-(difluoromethyl)pyrazolo[1,5-a]pyridin-2-yl)-6,7-dihydro-1H-imidazo [4,5-c]pyridin-5(4H)-yl)(5-(pyrazin-2-yl)-1,3,4-oxadiazol-2-yl)methanone] was tested, and the AC50 was 1000 to 5000 nM.
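Further: Ten-point dose curve from 2-fold serial dilutions, run in duplicate at 0.5% DMSO final, tracer step used 20 µM sepiapterin and 800 µM labeled phenylalanine.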
